According to the CheMixHub viscosity set:
± gives the uncertainty stated by the source.

Test: xn = mol fraction of the nth substance listed

C1=Cc2cccc3cccc1c23 + CO
viscosity [mPa·s], 101 kPa
Conditions | 298.15 K | 303.15 K | 308.15 K | 313.15 K | 318.15 K
x1 = 0.00471 | 0.5715 ± 0.014 | 0.5301 ± 0.013 | 0.494 ± 0.012 | 0.4598 ± 0.012 | 0.436 ± 0.011
x1 = 0.00731 | – | 0.5362 ± 0.013 | 0.5036 ± 0.013 | 0.4714 ± 0.012 | 0.4405 ± 0.011

CC(=O)[O-].C[N+]1(CC2CO2)CCCC1=O (stereo unspecified) + CO
viscosity [mPa·s], 101 kPa
Conditions | 293.15 K | 298.15 K | 303.15 K | 308.15 K | 313.15 K
x1 = 0.036 | 0.71 ± 0.02 | 0.66 ± 0.02 | 0.62 ± 0.01 | 0.57 ± 0.01 | 0.52 ± 0.01
x1 = 0.0744 | 0.92 ± 0.02 | 0.85 ± 0.02 | 0.78 ± 0.02 | 0.72 ± 0.02 | 0.73 ± 0.02
x1 = 0.1088 | 1.12 ± 0.02 | 1.03 ± 0.02 | 0.94 ± 0.02 | 0.87 ± 0.02 | 0.8 ± 0.02
x1 = 0.2024 | 1.69 ± 0.04 | 1.52 ± 0.03 | 1.38 ± 0.03 | 1.26 ± 0.03 | 1.15 ± 0.03
x1 = 0.3033 | 2.35 ± 0.05 | 2.09 ± 0.05 | 1.87 ± 0.04 | 1.69 ± 0.04 | 1.53 ± 0.03
x1 = 0.4042 | 3.02 ± 0.07 | 2.66 ± 0.06 | 2.36 ± 0.05 | 2.1 ± 0.05 | 1.89 ± 0.04
x1 = 0.504 | 3.68 ± 0.08 | 3.22 ± 0.07 | 2.83 ± 0.06 | 2.51 ± 0.05 | 2.24 ± 0.05
x1 = 0.6015 | 4.28 ± 0.09 | 3.71 ± 0.08 | 3.25 ± 0.07 | 2.86 ± 0.06 | 2.54 ± 0.06
x1 = 0.7036 | 4.91 ± 0.11 | 4.23 ± 0.09 | 3.68 ± 0.08 | 3.23 ± 0.07 | 2.85 ± 0.06
x1 = 0.8051 | 5.51 ± 0.12 | 4.72 ± 0.11 | 4.09 ± 0.09 | 3.57 ± 0.08 | 3.14 ± 0.07
x1 = 0.9086 | 6.14 ± 0.14 | 5.21 ± 0.12 | 4.49 ± 0.1 | 3.9 ± 0.09 | 3.42 ± 0.08

CCCCO + CO
101.33 kPa
Conditions | viscosity [mPa·s]
298.15 K, x2 = 0.1362 | 2.2 ± 0.039
298.15 K, x2 = 0.2224 | 1.966 ± 0.035
298.15 K, x2 = 0.302 | 1.768 ± 0.032
298.15 K, x2 = 0.409 | 1.528 ± 0.028
298.15 K, x2 = 0.5154 | 1.312 ± 0.024
298.15 K, x2 = 0.6105 | 1.139 ± 0.021
298.15 K, x2 = 0.693 | 0.999 ± 0.019
298.15 K, x2 = 0.8012 | 0.833 ± 0.016
298.15 K, x2 = 0.9004 | 0.69 ± 0.013
303.15 K, x2 = 0.2846 | 1.602 ± 0.016
303.15 K, x2 = 0.3614 | 1.45 ± 0.015
303.15 K, x2 = 0.4291 | 1.311 ± 0.014
303.15 K, x2 = 0.492 | 1.191 ± 0.013
303.15 K, x2 = 0.6007 | 1.038 ± 0.012
303.15 K, x2 = 0.6929 | 0.8879 ± 0.011
303.15 K, x2 = 0.7719 | 0.7812 ± 0.011
303.15 K, x2 = 0.8404 | 0.6887 ± 0.01
303.15 K, x2 = 0.9003 | 0.6154 ± 0.0097

CCCCCCCC[N+](C)(CCCCCCCC)CCCCCCCC.[Cl-] + COC(=O)OC
Conditions | viscosity [mPa·s]
298.15 K, 101 kPa, x1 = 0.65 | 534.7 ± 110

CCCCOCCOCCOCCCC + COC(=O)OC
viscosity [mPa·s], 101.3 kPa
Conditions | 298.15 K | 308.15 K | 318.15 K
x1 = 0.0176 | 0.616 ± 0.009 | 0.546 ± 0.008 | 0.488 ± 0.007
x1 = 0.0289 | 0.635 ± 0.009 | 0.562 ± 0.008 | 0.498 ± 0.007
x1 = 0.0543 | 0.678 ± 0.01 | 0.599 ± 0.009 | 0.523 ± 0.008
x1 = 0.0894 | 0.743 ± 0.01 | 0.65 ± 0.009 | 0.56 ± 0.008
x1 = 0.1574 | 0.862 ± 0.012 | 0.747 ± 0.011 | 0.634 ± 0.009
x1 = 0.2414 | 1.012 ± 0.014 | 0.867 ± 0.012 | 0.726 ± 0.01
x1 = 0.3274 | 1.169 ± 0.016 | 0.991 ± 0.014 | 0.82 ± 0.012
x1 = 0.3389 | 1.189 ± 0.016 | 1.005 ± 0.014 | 0.83 ± 0.012
x1 = 0.44 | 1.367 ± 0.019 | 1.131 ± 0.016 | 0.947 ± 0.014
x1 = 0.5417 | 1.518 ± 0.021 | 1.266 ± 0.018 | 1.043 ± 0.015
x1 = 0.636 | 1.653 ± 0.024 | 1.377 ± 0.02 | 1.125 ± 0.016
x1 = 0.7193 | 1.745 ± 0.025 | 1.451 ± 0.021 | 1.182 ± 0.018
x1 = 0.8605 | 1.934 ± 0.029 | 1.606 ± 0.024 | 1.289 ± 0.02
x1 = 0.9421 | 2.047 ± 0.031 | 1.677 ± 0.025 | 1.351 ± 0.021

C=C1CCC2CC1C2(C)C (stereo unspecified) + COC(C)(C)C
298.15 K, 101.33 kPa
Conditions | viscosity [mPa·s]
x2 = 0.0493 | 1.485 ± 0.011
x2 = 0.1076 | 1.364 ± 0.01
x2 = 0.2248 | 1.142 ± 0.0088
x2 = 0.354 | 0.93 ± 0.0074
x2 = 0.439 | 0.8092 ± 0.0067
x2 = 0.5239 | 0.7038 ± 0.0062
x2 = 0.6457 | 0.5826 ± 0.0056
x2 = 0.7594 | 0.4855 ± 0.0052
x2 = 0.8663 | 0.41 ± 0.0049
x2 = 0.9007 | 0.3873 ± 0.0048
x2 = 0.9651 | 0.3495 ± 0.0047
